Source: article PMC5354820, “Novel PARP1/2 inhibitor mefuparib hydrochloride elicits potent in vitro and in vivo anticancer activity, characteristic of high tissue distribution” (Oncotarget, 2016)
≈ marks a conversion by molar mass, not a printed value. Like-named read-outs stand apart in the source and are kept apart here.

How the values were obtained:
[1] = Metabolites in monkey plasma; assay type: in vivo; conditions: monkeys, MPH 10 mg/kg oral; for share of the total amount of all the metabolites and MPH in the plasma: 3-h time point; for average remaining amount, of the corresponding plasma amount at 3 h: 12-h time point
Protocol: SD rats and cynomolgus monkeys were used to do the in vivo pharmacokinetic studies. […] The metabolites in the monkey plasma were analyzed by UPLC-UV/Q-TOF MS. The metabolite data were collected with Analyst® TF V1.6 (AB Sciex Inc., Framingham, MA) and Masslynx V4.1 (Waters Corporation, Milford, MA) and analyzed with PeakView® V1.2 and MetabolitePilot V1.5 (AB Sciex).

P-glycoprotein (P-gp) = test system: P-glycoprotein (P-gp); parameters: method as in PMID 26374559; conditions: cited from earlier work
[2] = test system: γH2AX in MDA-MB-436 cells; test: γH2AX accumulation in cultured MDA-MB-436 cells; assay type: cell-based, human; conditions: MDA-MB-436 (BRCA1−/−), concentration-dependent
U251 cells = test: Proliferative inhibition assay, U251; assay type: cell-based; conditions: Homo sapiens, U-251, 168 h, read-out: IC50 (mean ± SD)
Protocol: (§2) Cells cultured in 96-well plates were treated with PARP inhibitors alone or in combination with the indicated anticancer drugs for 3 days (Chinese hamster cells and Ewing sarcoma cells) or 7 days (all the other cells). Then the cells were subjected to the Cell Counting Kit 8 (CCK8) assays (Chinese hamster cells, Ewing sarcoma cells, HCC1937 and MDA-MB-436 cells) or by Sulforhodamine B (SRB) assays (all the other cells) as described previously [18, 19]. […] The averaged IC50 values (mean ± SD) were determined with the Logit method from three independent tests.

[3] = parameters: method as in PMID 18800822; conditions: rats; cited from earlier work
RD-ES cells = test: Proliferative inhibition assay, RD-ES; assay type: cell-based; conditions: Homo sapiens, 72 h, read-out: IC50 (mean ± SD)
Protocol: as §2

Capan-1 cells = test: Proliferative inhibition assay, Capan-1; assay type: cell-based; conditions: Homo sapiens, CAPAN-1, 168 h, read-out: IC50 (mean ± SD)
Protocol: as §2

MDA-MB-436 cells = test: Proliferative inhibition assay, MDA-MB-436; assay type: cell-based; conditions: Homo sapiens, MDA-MB-436, 168 h, read-out: IC50 (mean ± SD)
Protocol: as §2

UWB1.289 cells = test: Proliferative inhibition assay, UWB1.289; assay type: cell-based; conditions: Homo sapiens, UWB1289, 168 h, read-out: IC50 (mean ± SD)
Protocol: as §2

HCC1937 cells = test: Proliferative inhibition assay, HCC1937; assay type: cell-based; conditions: Homo sapiens, HCC1937, 168 h, read-out: IC50 (mean ± SD)
Protocol: as §2

MDA-MB-436 xenografts = test: MDA-MB-436 subcutaneous xenografts in nude mice; assay type: in vivo; conditions: oral; MPH once every other day, AZD2281 30 mg/kg each day
From the text: (§1) V-C8, V79, MDA-MB-436 and SW620 xenografts were established by inoculating 5 × 10^6 cells s.c. in nude mice, respectively. After 1~2 passages in nude mice, the well-grown xenografts were cut into 1.5-mm^3 fragments that subsequently were transplanted s.c. into the right flank of nude mice. When xenografts reached a volume of 100–200 mm^3 (230-240 mm^3 for V79), the mice were randomized to control and treated groups and received the corresponding treatments as indicated. […]. The size of xenografts and the body weight of mice were measured individually twice per week. The xenografts were measured for the maximal width (X) and length (Y) and the volume (V) was calculated as (X^2Y)/2. Relative tumor volume (RTV) was calculated as Vt / V0, where V0 and Vt were the volume before and after treatments, respectively. The in vivo anticancer activity was judged by their T/C (%) values. T/C (%) was calculated as (TRTV / CRTV)×100%, where TRTV and CRTV represented the RTV of the treatment and the vehicle group, respectively.

PC-3 cells = test: Proliferative inhibition assay, PC-3; assay type: cell-based; conditions: Homo sapiens, PC-3, 168 h, read-out: IC50 (mean ± SD)
Protocol: as §2

[4] = parameters: method as in PMID 19553641; conditions: humans; cited from earlier work
[5] = cited from earlier work
γH2AX in V-C8 cells = test: γH2AX accumulation in cultured V-C8 cells; assay type: cell-based, Chinese hamster; conditions: V-C8 (BRCA2−/−), concentration-dependent
SK-ES-1 cells = test: Proliferative inhibition assay, SK-ES-1; assay type: cell-based; conditions: Homo sapiens, SK-ES1, 72 h, read-out: IC50 (mean ± SD)
Protocol: as §2

V-C8+H13 cells = test: Proliferative inhibition assay, V-C8+H13; assay type: cell-based, Chinese hamster; conditions: Cricetulus griseus, 72 h, read-out: IC50 (mean ± SD)
Protocol: as §2

V-C8 cells = test: Proliferative inhibition assay, V-C8; assay type: cell-based, Chinese hamster; conditions: Cricetulus griseus, V-C8, 72 h, read-out: IC50 (mean ± SD)
Protocol: as §2

V79 xenografts = test: V79 subcutaneous xenografts in nude mice; assay type: in vivo; conditions: similar treatments as in V-C8 xenografts
From the text: as §1

DoTc2-4510 cells = test: Proliferative inhibition assay, DoTc2-4510; assay type: cell-based; conditions: Homo sapiens, DoTc2-4510, 168 h, read-out: IC50 (mean ± SD)
Protocol: as §2

[6] = parameters: method as in PMID 18800822; conditions: dogs; cited from earlier work
[7] = parameters: method as in PMID 19553641; conditions: cited from earlier work
HCT-15 cells = test: Proliferative inhibition assay, HCT-15; assay type: cell-based; conditions: Homo sapiens, HCT-15, 168 h, read-out: IC50 (mean ± SD)
Protocol: as §2

V79 cells = test: Proliferative inhibition assay, V79; assay type: cell-based, Chinese hamster; conditions: Cricetulus griseus, V79, 72 h, read-out: IC50 (mean ± SD)
Protocol: as §2

V-C8 xenografts = assay type: in vivo; conditions: mouse, in vivo
From the text: as §1

SW620 xenografts = test: SW620 subcutaneous xenografts in nude mice, alone or with TMZ; assay type: in vivo; conditions: SW620, d21, TMZ 2 mg/kg alone
Protocol: After 1~2 passages in nude mice, the well-grown xenografts were cut into 1.5-mm^3 fragments that subsequently were transplanted s.c. into the right flank of nude mice. When xenografts reached a volume of 100–200 mm^3 (230-240 mm^3 for V79), the mice were randomized to control and treated groups and received the corresponding treatments as indicated. […] The size of xenografts and the body weight of mice were measured individually twice per week. The xenografts were measured for the maximal width (X) and length (Y) and the volume (V) was calculated as (X^2Y)/2. Relative tumor volume (RTV) was calculated as Vt / V0, where V0 and Vt were the volume before and after treatments, respectively.

With CC(=O)NCc1ccc(-c2cc3cc(F)cc(C(=O)O)c3o2)cc1 [M5] the “share of the total amount of all the metabolites and MPH in the plasma” value (“share” below) [1] was 0.72%.
With CNCc1ccc(-c2cc3cc(F)cc(C(=O)O)c3o2)cc1 [M1] the “share” value [1] was 52.18% and the “average remaining amount, of the corresponding plasma amount at 3 h” value [1] was 3.13%.
For CNCc1ccc(-c2cc3cc(F)cc(C(=O)OC4OC(C(=O)O)C(O)C(O)C4O)c3o2)cc1 (centres unmarked) [M3], the “share” value [1] was 4.18%.
In the case of O=C(c1cc(Cc2n[nH]c(=O)c3ccccc23)ccc1F)N1CCN(C(=O)C2CC2)CC1 [AZD2281, olaparib, reference compound], the P-gp substrate (P-glycoprotein (P-gp)) is given as “substrate of the drug transporter P-glycoprotein (P-gp)”, the “γH2AX levels (DSB accumulation)” value [2] is given as “increased levels of γH2AX” and the IC50 (U251 cells) is given as 2500 ± 640 nM. The Vd [3] was 1.18 L/kg, the IC50 (RD-ES cells) was 670 ± 140 nM and the IC50 (Capan-1 cells) was 1730 ± 320 nM. It also gave an IC50 (MDA-MB-436 cells) of 20 ± 10 nM, an IC50 (UWB1.289 cells) of 2980 ± 1650 nM and an IC50 (HCC1937 cells) of 7280 ± 1910 nM. For the same molecule, the “effect on growth of MDA-MB-436 (BRCA1−/−) xenografts” value (MDA-MB-436 xenografts) was “between those of MPH at 40 mg/kg and 80 mg/kg every other day”, the IC50 (PC-3 cells) was 4700 ± 690 nM and the “average Vd” value [4] was 40.3 L. For the same molecule, the water solubility [5] was < 1000 µg/mL, the “solubility in aqueous media” value ([5]; independent of pH) was 100 µg/mL (≈ 230 µM) and the “γH2AX levels (DSB accumulation)” value (γH2AX in V-C8 cells) was “increased levels of γH2AX”. It also gave an IC50 (SK-ES-1 cells) of 1700 ± 130 nM, an IC50 (V-C8+H13 cells) of 13600 ± 1850 nM and an IC50 (V-C8 cells) of 610 ± 40 nM. The “effect on growth of V79 xenografts” value (V79 xenografts) was “did not inhibit the growth of V79 xenografts”, the IC50 (DoTc2-4510 cells) was 890 ± 280 nM and the Vd [6] was 1.3 L/kg. For the same molecule, the “passage of the blood-brain barrier” value [7] was “hard to go through the blood-brain barrier”, the IC50 (HCT-15 cells) was 25700 ± 4700 nM and the IC50 (V79 cells) was 15600 ± 1150 nM. For the same molecule, the “death or body-weight loss of the animals” value (V-C8 xenografts) was “did not cause death or significant body-weight loss”.
For Cn1nnc2c(C(N)=O)ncn2c1=O [TMZ, temozolomide, reference compound], the “FTV (fractional tumor volume), TMZ alone” value (SW620 xenografts) was 0.16.
For C[C@]1(c2nc3c(C(N)=O)cccc3[nH]2)CCCN1 [veliparib], the water solubility [5] is given as < 1000 µg/mL.
In the case of CNCc1ccc(-c2[nH]c3cc(F)cc4c3c2CCNC4=O)cc1 [rucaparib], the water solubility [5] is given as < 1000 µg/mL.
For CNC(=O)c1ccc(-c2cc3cc(F)cc(C(N)=O)c3o2)cc1 [M4], the “share” value [1] was 0.24%.
In the case of NC(=O)c1cc(F)cc2cc(-c3ccc(C(=O)O)cc3)oc12 [M2], the “share” value [1] is reported as 1.86% and the “average remaining amount, of the corresponding plasma amount at 3 h” value [1] is reported as 23.54%.
In the case of Cn1ncnc1[C@H]1c2n[nH]c(=O)c3cc(F)cc(c23)N[C@@H]1c1ccc(F)cc1 [talazoparib], the water solubility [5] is listed as < 1000 µg/mL.
In the case of CN(Cc1ccc(-c2cc3cc(F)cc(C(N)=O)c3o2)cc1)OC1OC(C(=O)O)C(O)C(O)C1O (centres unmarked) [M6], the “share” value [1] is reported as 1.63%.
For NC(=O)c1cccc2cn(-c3ccc([C@@H]4CCCNC4)cc3)nc12 [niraparib], the water solubility [5] is given as < 1000 µg/mL.
